What all share (format): cell-based
The target of test [1] is T1, Short transient receptor potential channel 4 (Mus musculus, UniProt Q9QUQ5).
T1 sequence (Q9QUQ5 whole entry): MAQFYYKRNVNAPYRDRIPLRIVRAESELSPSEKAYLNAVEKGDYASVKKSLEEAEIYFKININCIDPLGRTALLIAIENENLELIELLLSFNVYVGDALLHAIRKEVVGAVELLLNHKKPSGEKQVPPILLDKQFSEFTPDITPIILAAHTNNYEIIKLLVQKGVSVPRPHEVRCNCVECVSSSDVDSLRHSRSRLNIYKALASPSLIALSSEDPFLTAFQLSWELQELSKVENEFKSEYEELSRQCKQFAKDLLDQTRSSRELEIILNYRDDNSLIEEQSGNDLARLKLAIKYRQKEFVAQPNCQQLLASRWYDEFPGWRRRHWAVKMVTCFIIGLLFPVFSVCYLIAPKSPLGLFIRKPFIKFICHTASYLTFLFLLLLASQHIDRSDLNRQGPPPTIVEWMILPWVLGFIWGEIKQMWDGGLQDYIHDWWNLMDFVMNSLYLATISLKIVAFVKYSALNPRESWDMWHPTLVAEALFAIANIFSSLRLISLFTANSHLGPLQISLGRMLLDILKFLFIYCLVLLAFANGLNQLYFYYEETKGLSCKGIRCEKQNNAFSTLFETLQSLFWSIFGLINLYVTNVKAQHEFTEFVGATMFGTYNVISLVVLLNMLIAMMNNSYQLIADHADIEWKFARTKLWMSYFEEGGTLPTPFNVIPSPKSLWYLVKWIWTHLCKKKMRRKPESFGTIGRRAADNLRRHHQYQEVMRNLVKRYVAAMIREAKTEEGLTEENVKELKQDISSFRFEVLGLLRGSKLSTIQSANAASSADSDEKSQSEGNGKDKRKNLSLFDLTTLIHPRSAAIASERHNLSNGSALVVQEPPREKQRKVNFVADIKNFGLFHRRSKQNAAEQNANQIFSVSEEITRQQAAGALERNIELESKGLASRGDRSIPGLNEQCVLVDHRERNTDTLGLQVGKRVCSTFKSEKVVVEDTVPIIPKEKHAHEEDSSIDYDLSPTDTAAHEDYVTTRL
The test is described as follows: Inhibition of mouse TRPC4 beta expressed in HEK293 cells co-expressing mu-opioid receptor assessed as reduction in DAMGO-induced membrane potential by FMP-2 dye based assay.

Test [2] deals with T2, Short transient receptor potential channel 5 (Mus musculus, UniProt Q9QX29).
T2 sequence (Q9QX29 whole entry): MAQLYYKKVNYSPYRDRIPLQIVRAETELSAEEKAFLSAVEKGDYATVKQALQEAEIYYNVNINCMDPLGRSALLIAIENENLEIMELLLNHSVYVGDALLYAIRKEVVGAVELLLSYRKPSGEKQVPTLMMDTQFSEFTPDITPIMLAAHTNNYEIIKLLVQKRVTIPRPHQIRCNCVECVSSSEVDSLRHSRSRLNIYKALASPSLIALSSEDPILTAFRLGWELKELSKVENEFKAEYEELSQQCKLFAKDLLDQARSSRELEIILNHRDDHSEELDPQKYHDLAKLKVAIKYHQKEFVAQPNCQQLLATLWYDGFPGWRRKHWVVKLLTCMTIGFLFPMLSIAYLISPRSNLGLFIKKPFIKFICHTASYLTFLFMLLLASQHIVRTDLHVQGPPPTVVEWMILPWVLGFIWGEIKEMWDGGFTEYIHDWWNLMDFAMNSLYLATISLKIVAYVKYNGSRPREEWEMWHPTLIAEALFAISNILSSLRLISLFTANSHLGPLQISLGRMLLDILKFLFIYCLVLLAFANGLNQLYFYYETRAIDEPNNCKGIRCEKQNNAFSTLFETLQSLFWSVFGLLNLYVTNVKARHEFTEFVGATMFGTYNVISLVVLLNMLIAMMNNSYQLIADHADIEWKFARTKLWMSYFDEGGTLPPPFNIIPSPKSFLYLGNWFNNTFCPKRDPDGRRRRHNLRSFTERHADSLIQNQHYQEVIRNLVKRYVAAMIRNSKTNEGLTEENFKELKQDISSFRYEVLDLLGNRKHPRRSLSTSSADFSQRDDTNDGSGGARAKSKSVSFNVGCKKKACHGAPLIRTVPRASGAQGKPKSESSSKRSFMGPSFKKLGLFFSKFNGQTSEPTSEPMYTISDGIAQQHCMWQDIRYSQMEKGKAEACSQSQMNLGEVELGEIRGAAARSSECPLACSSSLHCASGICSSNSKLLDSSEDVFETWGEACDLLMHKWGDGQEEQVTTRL
The test is described as follows: Inhibition of mouse TRPC5 expressed in HEK293 cells co-expressing mu-opioid receptor assessed as reduction in DAMGO-induced membrane potential by FMP-2 dye based assay.

Test [3] concerns the target T3, Short transient receptor potential channel 6 (Mus musculus, UniProt Q61143).
T3 sequence (Q61143 whole entry): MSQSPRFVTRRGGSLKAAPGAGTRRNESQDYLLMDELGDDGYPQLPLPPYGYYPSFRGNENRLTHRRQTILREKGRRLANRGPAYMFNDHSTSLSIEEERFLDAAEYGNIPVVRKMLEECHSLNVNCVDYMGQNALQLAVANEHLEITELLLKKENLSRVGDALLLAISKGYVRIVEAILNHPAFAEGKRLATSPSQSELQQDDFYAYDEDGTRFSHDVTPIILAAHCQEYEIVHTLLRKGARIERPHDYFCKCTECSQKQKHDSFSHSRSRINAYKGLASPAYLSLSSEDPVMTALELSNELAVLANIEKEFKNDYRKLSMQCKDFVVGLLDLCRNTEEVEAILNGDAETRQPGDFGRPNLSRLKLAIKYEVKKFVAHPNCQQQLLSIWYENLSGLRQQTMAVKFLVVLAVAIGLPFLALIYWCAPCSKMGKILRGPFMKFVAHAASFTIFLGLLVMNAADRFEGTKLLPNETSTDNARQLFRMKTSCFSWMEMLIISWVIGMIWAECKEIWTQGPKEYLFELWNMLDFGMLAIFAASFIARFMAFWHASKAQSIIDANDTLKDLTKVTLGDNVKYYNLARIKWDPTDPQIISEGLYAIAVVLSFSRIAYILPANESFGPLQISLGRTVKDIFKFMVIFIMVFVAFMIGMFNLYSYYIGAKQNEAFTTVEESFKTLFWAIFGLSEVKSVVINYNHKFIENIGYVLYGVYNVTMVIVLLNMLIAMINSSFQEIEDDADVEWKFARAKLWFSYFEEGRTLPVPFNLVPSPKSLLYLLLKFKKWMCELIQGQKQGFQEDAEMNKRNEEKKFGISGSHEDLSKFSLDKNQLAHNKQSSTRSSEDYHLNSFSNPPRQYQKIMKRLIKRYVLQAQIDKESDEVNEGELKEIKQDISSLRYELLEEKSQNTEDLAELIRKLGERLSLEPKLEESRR
The test is described as follows: Inhibition of mouse TRPC6 expressed in HEK293 cells co-expressing M5 receptor assessed as reduction in carbachol-induced membrane potential by FMP-2 dye based assay.

pIC50: −log10 of the molar value.

For `c1ccc2[nH]c(NC34CC5CC(CC(C5)C3)C4)nc2c1`, the pIC50 in test [1] was 4.99; in test [2] it was 4.91; in test [3], less than 4.00.
Turning to `c1ccc2[nH]c(N3CCCCC3)nc2c1`, the pIC50 is 4.96 in test [1], 4.95 in test [2] and less than 4.00 in test [3].
The corresponding values for `c1ccc2[nH]c(N3CCCC3)nc2c1` are 5.26, 5.10 and less than 4.00.
For `CC1CCCCN1c1nc2ccccc2[nH]1` (stereo not drawn), the values for the pIC50 in test [1], in test [2] and in test [3] were 5.37, 5.46 and less than 4.00, respectively.
Regarding `CC1CCN(c2nc3ccccc3[nH]2)CC1`, the pIC50 in test [1] was 5.28; in test [2], 5.18; in test [3], 4.20.
The corresponding values for `CC1CCN(c2nc3cc(Cl)ccc3[nH]2)CC1` are 5.39, 5.51 and 4.24.

Broadly, the pIC50 is the negative decadic logarithm of the IC50, by convention in mol/L.

The record behind these values is ChEMBL document CHEMBL4376804, “Review of Transient Receptor Potential Canonical (TRPC5) Channel Modulators and Diseases” (J Med Chem, 2019).
